The results in this text go back to US10870660B2, “Nitrogen-containing condensed ring compounds having dopamine D3 antagonistic effect” (Shionogi & Co., Ltd., priority 2016, dated 2020).

Assay [1] deals with human recombinant dopamine D3 receptor (Homo sapiens (Human), UniProt P35462). The experiment in a line: Test of binding inhibition for the human dopamine D3 receptor ([3H]-Metylspiperone SPA binding). The settings on record: [3H]-Metylspiperone 2 nM, Jump-In HEK cell membranes, read-out: hD3_Ki. The protocol: Cell membranes: Jump-In HEK cell membranes expressing human recombinant dopamine D3 receptor (4 μg/well)
(§1) Non-specific ligand: (final concentration) 10 μM Butaclamol [(+)-Butaclamol Hydrochioride, D033, Sigma]
(§2) SPA beads: SPA beads [WGA PVT SPA Scintillatiion Beads, RPNQ0001 (500 mg), RPNQ0060 (2 g), PerkinElmer] (0.2 mg/well)
(§3) Incubation time and temperature: 120 min at 25° C.
(§4) Butaclamol or the compounds of the present invention were weighed and DMSO was added to make a 10 mM solution. This solution was diluted to each concentration.
[^3H]-Metylspiperone was weighed and the buffer solution was added to make a 6 nM solution.
(§5) SPA beads were weighed and stirred in water to make a 50 mg/mL solution. Using this solution, a mixed solution with the cell membranes was prepared.
Jump-In HEK Cell membranes (final reaction amount: 4 μg/well), SPA beads (final reaction amount: 0.2 mg/well) and Tris-HCl buffer were mixed and the mixed solution was left still for more than 60 min at 4° C. Then, 50 μL of the mixture was added to each well of the plate. In addition, 25 μL of 6 nM [^3H]-Metylspiperone (final concentration: 2 nM) was added to each well. […] Non-specific binding was calculated based on the radioactivity of [^3H]-Metylspiperone in the presence of 10 μM non-labeled Butaclamol. The total binding was calculated based on the radioactivity of [^3H]-Metylspiperone in the absence of the compounds of the present invention (Vehicle). The Ki values were calculated from dose-response curves.
(§6) Binding activities of the compounds of the present invention were calculated from the following Binding Inhibition Rate (%): Inhibition Rate (%)=[1−(c−a)(b−a)]×100(%) • a: Average cpm of non-specific binding • b: Average cpm of total binding • c: Cpm in the presence of each test compound

The target of assay [2] is human recombinant dopamine D2 receptor (Homo sapiens (Human), UniProt P14416). The experiment in a line: Test of binding inhibition for the human dopamine D2 receptor ([3H]-Metylspiperone SPA binding). Particulars: [3H]-Metylspiperone 1.2 nM, Jump-In HEK cell membranes, read-out: hD2_Ki. The protocol: Cell membranes: Jump-In HEK cell membranes expressing human recombinant dopamine D2 receptor (2 μg/well)
Buffer solution: 50 mM Tris-HCl (35409-45, Nacalai Tesque) (pH 7.4) containing 120 mM NaCl (31320-05, Nacalai Tesque), 1 mM MgCl2.6H2O (20909-55, Nacalai Tesque), 5 mM KCl (28514-75, Nacalai Tesque) and 2 mM CaCl2 (067-31, Nacalai Chemical, Ltd)
Radioligand: (final concentration) 1.2 nM [^3H]-Metylspiperone ([^3H—N-methyl-]-Metylspiperone, NET-856, 83.8 Ci/mmol, PerkinElmer)
as §1, §2, §3, §4
[^3H]-Metylspiperone was weighed and the buffer solution was added to make a 3.6 nM solution.
as §5
225 nL of the solutions of the non-specific ligand or the compounds of the present invention at each concentration (in case of vehicle, final concentration 0.3% DMSO) were added in each well of a 384-well white/clear bottom microplate (3706, Corning). Jump-In HEK Cell membranes (final reaction amount: 2 μg protein/well), SPA beads (final reaction amount: 0.2 mg/well) and the buffer were mixed and the mixed solution was left still for more than or equal to 1 h at 4° C. Then, 50 μL of the mixture was added to each well of the plate. In addition, 25 μL of 3.6 nM [^3H]-Metylspiperone (final concentration: 1.2 nM) was added to each well. The plate was sealed by putting TopSeal-A 96/384 well (6050185, PerkinElmer) on the top of the plate, mixed using stirring deaerator (Welltornado, FK-62, Sakaki) and incubated for 120 min at 25° C. After incubation, the radioactivity of [^3H]-Metylspiperone which was binded to D2 receptor was determined by liquid scintillation counter (1450 Microbeta, PerkinElmer) in each well. Non-specific binding was calculated based on the radioactivity of [^3H]-Metylspiperone in the presence of 10 μM non-labeled Butaclamol. The total binding was calculated using the radioactivity of [^3H]-Metylspiperone in the absence of the compounds of the present invention (Vehicle). The Ki values were calculated from dose-response curves.
as §6

human recombinant dopamine D3 receptor, sequence (P35462 whole entry): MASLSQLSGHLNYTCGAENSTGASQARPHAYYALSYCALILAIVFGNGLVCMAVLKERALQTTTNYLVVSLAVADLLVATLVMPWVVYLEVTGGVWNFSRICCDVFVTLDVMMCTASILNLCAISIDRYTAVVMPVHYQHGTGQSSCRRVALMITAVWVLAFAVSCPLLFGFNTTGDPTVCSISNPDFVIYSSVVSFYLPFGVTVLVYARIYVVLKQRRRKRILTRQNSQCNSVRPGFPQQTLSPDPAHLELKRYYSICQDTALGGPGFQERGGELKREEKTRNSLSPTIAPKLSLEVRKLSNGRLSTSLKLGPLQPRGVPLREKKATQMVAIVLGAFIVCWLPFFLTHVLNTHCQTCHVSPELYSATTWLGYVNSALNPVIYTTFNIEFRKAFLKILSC
human recombinant dopamine D2 receptor, sequence (P14416 whole entry): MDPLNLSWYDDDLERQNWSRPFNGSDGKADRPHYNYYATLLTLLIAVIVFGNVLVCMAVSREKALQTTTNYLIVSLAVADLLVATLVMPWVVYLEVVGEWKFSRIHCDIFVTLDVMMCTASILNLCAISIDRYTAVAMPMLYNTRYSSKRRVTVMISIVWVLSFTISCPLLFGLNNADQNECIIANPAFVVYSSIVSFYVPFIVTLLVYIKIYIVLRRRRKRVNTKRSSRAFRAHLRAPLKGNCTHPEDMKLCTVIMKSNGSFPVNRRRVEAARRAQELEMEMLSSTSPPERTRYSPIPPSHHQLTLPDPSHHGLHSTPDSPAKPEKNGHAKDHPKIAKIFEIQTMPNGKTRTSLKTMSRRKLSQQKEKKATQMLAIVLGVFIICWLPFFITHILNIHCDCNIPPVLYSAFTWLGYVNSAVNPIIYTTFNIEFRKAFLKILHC

Take `O=C(N[C@H]1CC[C@H](CCN2CC[C@H]3CN(c4ccccc4)C[C@@H]3C2)CC1)c1cccc2ncccc12` (racemic) [Compound I-033]: the Ki in assay [1] stood at 3.6 nM; in assay [2], 170 nM.

Regarding `Cn1cc2c(C(=O)NC3CC4(CC(CCN5CCc6sc(OCC(C)(F)F)nc6C5)C4)C3)cccc2n1` (single isomer, unassigned) [III-624], the values for the Ki in assay [1] and in assay [2] were 0.092 nM and 400 nM, respectively.

On to `O=C(N[C@H]1CC[C@H](CCN2CCc3sc(C4=CCOCC4)nc3C2)CC1)c1cccc2ncccc12` [Compound I-001], for which the Ki in assay [1] is 11 nM; in assay [2], greater than 1700 nM.

With `O=C(N[C@H]1CC[C@H](CCN2CCc3sc(Br)nc3C2)CC1)c1cccc2ncccc12` [Compound I-003], the Ki was 2.6 nM in assay [1] and greater than 1900 nM in assay [2].

On to `O=C(N[C@H]1CC[C@H](CCN2CCc3sc(Cc4ccccc4)nc3C2)CC1)c1cccc2ncccc12` [Compound I-014], for which the Ki was 1.3 nM in assay [1] and greater than 1700 nM in assay [2].

In the case of `O=C(N[C@H]1CC[C@H](CCN2CCc3nc(-c4ccccc4)sc3C2)CC1)c1cccc2ncccc12` [Compound I-018], the Ki in assay [1] was 12 nM; in assay [2], greater than 1700 nM.

Regarding `Cn1c(C#N)cc2c1CCN(CC[C@H]1CC[C@H](NC(=O)c3cccc4ncccc34)CC1)C2` [Compound I-052], the Ki in assay [1] was 1 nM; in assay [2], 1100 nM.

Regarding `Cn1c(-c2ccccc2)nc2c1CCN(CC[C@H]1CC[C@H](NC(=O)c3cccc4ncccc34)CC1)C2` [Compound I-070], the Ki in assay [1] was found to be 1.4 nM; in assay [2] it was 500 nM.

In the case of `CC(F)(F)COc1nc2c(s1)CCN(CC[C@H]1CC[C@H](NC(=O)c3cccc4ncccc34)CC1)C2` [Compound I-071], the values for the Ki in assay [1] and in assay [2] were 0.13 nM and 150 nM, respectively.

For `O=C(N[C@H]1CC[C@H](CCN2CCc3sc(N4CC5CC5C4)nc3C2)CC1)c1cccc2ncccc12` (stereo partly drawn) [Compound I-073], the values for the Ki in assay [1] and in assay [2] were 0.08 nM and greater than 1700 nM, respectively.

Regarding `CC1c2nc(OCC(F)F)sc2CCN1CC[C@H]1CC[C@H](NC(=O)c2cccc3ncccc23)CC1` (stereo partly drawn) [Compound I-101], the Ki in assay [1] is 8.1 nM; in assay [2], greater than 1700 nM.

As to `Cc1ncc(CC(=O)N[C@H]2CC[C@H](CCN3CCc4sc(OCC(F)F)nc4C3)CC2)s1` [Compound I-107], the figures for the Ki in assay [1] and in assay [2] were 0.82 nM and 370 nM, respectively.

Consider `Cn1cc(CC(=O)N[C@H]2CC[C@H](CCN3CCc4sc(OCC(F)F)nc4C3)CC2)cn1` [Compound I-108], for which the Ki turned out to be 1.5 nM in assay [1] and 1400 nM in assay [2].

As to `O=C(N[C@H]1CC[C@H](CCN2CCc3cn(Cc4ccccc4)nc3C2)CC1)c1cccc2ncccc12` [Compound I-113], the Ki is 4.7 nM in assay [1] and greater than 1700 nM in assay [2].

Consider `O=C(N[C@H]1C[C@@H]2[C@@H](CCN3CCc4sc(OCC(F)F)nc4C3)[C@@H]2C1)c1cccc2ncccc12` [Compound I-124], for which the figures for the Ki in assay [1] and in assay [2] were 0.91 nM and 860 nM, respectively.

Take `O=C(N[C@H]1CC[C@H](CCN2CCc3cnc(CC4CC4)nc3C2)CC1)c1cccc2ncccc12` [Compound I-133]: the Ki in assay [1] is 7.9 nM; in assay [2], greater than 1700 nM.

As for `O=C(N[C@H]1CC[C@H](CCN2CCc3nc(OCC(F)F)ncc3C2)CC1)c1cccc2ncccc12` [Compound I-136], the Ki in assay [1] is 25 nM; in assay [2], greater than 1800 nM.

Consider `O=C(N[C@H]1CC[C@H](CCN2CCc3ccc(OCC(F)F)nc3C2)CC1)c1cccc2ncccc12` [Compound I-139], for which the Ki in assay [1] is 0.69 nM; in assay [2], greater than 1700 nM.

For `O=C(NCCCCN1CCc2sc(OCC(F)(F)F)nc2C1)c1ccc2ccccc2c1` [Compound I-140], the Ki in assay [1] came to 1.9 nM; in assay [2], 1200 nM.

As for `O=C(N[C@H]1CC[C@H](CCN2CCc3sc(OCC(F)(F)F)nc3C2)OC1)c1cccc2ncccc12` [Compound I-142], the Ki came to 0.72 nM in assay [1] and 650 nM in assay [2].

For `Cc1ncc(CC(=O)N[C@H]2CC[C@H](CCN3CCc4ccc(OCC(F)F)nc4CC3)CC2)s1` [II-005], the Ki worked out at 0.085 nM in assay [1] and 430 nM in assay [2].

As for `CC(=O)N[C@H]1CC[C@H](CCN2CCc3nc(OCC(C)(F)F)sc3CC2)CC1` [II-014], the Ki in assay [1] was found to be 0.45 nM; in assay [2], 230 nM.

Take `O=C(CCC(F)(F)F)N[C@H]1CC[C@H](CCN2CCc3nc(CCC(F)(F)F)sc3CC2)CC1` [II-018]: the Ki in assay [1] was 2.7 nM; in assay [2], greater than 1800 nM.

In the case of `Cc1nc(CC(=O)N[C@H]2CC[C@H](CCN3CCc4nc(CCC(F)(F)F)sc4CC3)CC2)no1` [II-019], the values for the Ki in assay [1] and in assay [2] were 2.3 nM and greater than 1800 nM, respectively.

As to `Cn1cc2c(C(=O)N[C@H]3CC[C@H](CCN4CCc5nc(OCC(F)F)sc5CC4)CC3)cccc2n1` [II-026], the Ki in assay [1] was 0.2 nM; in assay [2] it was greater than 1700 nM.

Regarding `Cc1ncc(CC(=O)N[C@H]2CC[C@H](CCN3CCc4nc(OCC(C)(F)F)sc4CC3)CC2)o1` [II-029], the values for the Ki in assay [1] and in assay [2] were 0.12 nM and 1300 nM, respectively.

With `Cn1cc2c(C(=O)N[C@H]3CC[C@H](CCN4CCc5nc(OCC(F)(F)F)sc5CC4)CC3)cccc2n1` [II-046], the Ki in assay [1] came out at 0.2 nM; in assay [2], 1200 nM.

With `CN1Cc2c(C(=O)N[C@H]3CC[C@H](CCN4CCc5nc(OCC(F)(F)F)sc5CC4)CC3)cccc2C1=O` [II-047], the Ki in assay [1] was found to be 0.022 nM; in assay [2] it was 280 nM.

In the case of `Cc1ncc(/C=C/C(=O)N[C@H]2CC[C@H](CCN3CCc4nc(OCC(F)(F)F)sc4CC3)CC2)cn1` [II-048], the Ki in assay [1] is 0.82 nM; in assay [2], greater than 1700 nM.

Turning to `CC(C)Oc1ccc2c(n1)CCN(CC[C@H]1CC[C@H](NC(=O)c3cccc4nn(C)cc34)CC1)CC2` [II-050], the results for the Ki in assay [1] and in assay [2] were 0.51 nM and greater than 1800 nM, respectively.

As to `Cc1ncc(CC(=O)N[C@H]2CC[C@H](CCN3CCc4nc(OCC(F)(F)F)sc4CC3)CC2)s1` [II-053], the Ki in assay [2] was determined as 730 nM.

With `Cn1cc2c(C(=O)N[C@H]3CC[C@H](CCN4CCc5ccc(OCC(F)F)nc5CC4)CC3)cccc2n1` [II-057], the Ki in assay [1] is 0.014 nM; in assay [2], greater than 1700 nM.

On to `Cc1ncc(CC(=O)N[C@H]2CC[C@H](CCN3CCc4nc(N(C)CC(F)(F)F)sc4CC3)CC2)s1` [II-084], for which the Ki in assay [2] came to 510 nM.

For the compound `Cc1nc(CC(=O)N[C@H]2CC[C@H](CCN3CCc4ccc(OCC(C)(F)F)nc4CC3)CC2)no1` [III-019], the Ki in assay [1] came out at 0.14 nM.

As for `Cn1cc2c(C(=O)N[C@H]3CC[C@H](CCN4CCc5ccc(OCC(C)(F)F)nc5CC4)CC3)cccc2n1` [III-027], the Ki in assay [2] turned out to be 330 nM.

Regarding `Cn1cc(CC(=O)N[C@H]2CC[C@H](CCN3CCc4nc(OCC(F)(F)F)sc4CC3)CC2)cn1` [III-037], in assay [1], the Ki was determined as 0.2 nM.

On to `Cc1ncccc1C(=O)N[C@H]1CC[C@H](CCN2CCc3nc(OCC(F)(F)F)sc3CC2)OC1` [III-182], for which the Ki in assay [1] is 0.56 nM.

In the case of `COc1cc(CC(=O)N[C@H]2CC[C@H](CCN3CCc4nc(OCC(F)(F)F)sc4CC3)OC2)on1` [III-199], in assay [1], the Ki stood at 0.2 nM.

On to `Cc1cc(CC(=O)N[C@H]2CC[C@H](CCN3CCc4nc(OCC(F)F)sc4CC3)CC2)no1` [III-282], for which the Ki in assay [1] turned out to be 0.82 nM.

Take `COc1cc(CC(=O)N[C@H]2CC[C@H](CCN3CCc4sc(N5CC(F)(F)C5)nc4C3)CC2)on1` [III-578]: in assay [2], the Ki was greater than 1700 nM.

For `Cc1cc(OCC(=O)N[C@H]2CC[C@H](CCN3CCc4sc(N5CC(F)(F)C5)nc4C3)CC2)no1` [III-581], the Ki in assay [2] worked out at 810 nM.
